PubChem BioAssay (NCI)
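Compound exposure: 48 hours, 5 concentrations, 96-well plates. TGI: concentration producing complete growth inhibition.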

What was measured:
Test in all cases: NCI anticancer screen, dose series, 48 h
M14 melanoma = tested on: M14 melanoma
MCF7 breast = tested on: MCF7 breast
NCI-H23 lung = tested on: NCI-H23 lung
NCI/ADR-RES ovarian = tested on: NCI/ADR-RES ovarian
OVCAR-4 ovarian = tested on: OVCAR-4 ovarian
PC-3 prostate = tested on: PC-3 prostate
RPMI-8226 leukemia = tested on: RPMI-8226 leukemia
RXF 393 renal = tested on: RXF 393 renal
SNB-75 CNS = tested on: SNB-75 CNS
U251 CNS = tested on: U251 CNS

Row | Compound | TGI (M14 melanoma) [µM] | TGI (MCF7 breast) [µM] | TGI (NCI-H23 lung) [µM] | TGI (NCI/ADR-RES ovarian) [µM] | TGI (OVCAR-4 ovarian) [µM] | TGI (PC-3 prostate) [µM] | TGI (RPMI-8226 leukemia) [µM] | TGI (RXF 393 renal) [µM] | TGI (SNB-75 CNS) [µM] | TGI (U251 CNS) [µM]
1 | N#CC12C(=O)N3C(=NC(c4ccccc4)NC3c3ccccc3)C1(C#N)C(c1ccccc1)NC1=C2CCCC1 (stereo not drawn) | > 100 | > 100 | > 100 | > 100 | > 100 | > 100 | > 100 | > 100 | > 100 | > 100
2 | O=C(/C=C(\O)c1ccccc1)/C(=C/C(=O)c1ccccc1)NN=C(c1ccccc1)c1ccccc1 | 72.6 | > 100 | 79.9 | 77.6 | > 100 | > 100 | > 100 | > 100 | > 100 | > 100
3 | COc1nc(OC)nc(-c2cccc(F)c2)n1 | 36.4 | 45.1 | 29.7 | 31.7 | 39.6 | 40.2 | 45.3 | 35 | 44.4 | 31
4 | C=C(Br)CNCC(=C)Br | > 100 | > 100 | > 100 | > 100 | > 100 | > 100 | > 100 | > 100 | > 100 | > 100
5 | O=S1(=O)C(c2ccccc2)=C(O)c2ccccc21 | > 100 | > 100 | > 100 | > 100 | > 100 | > 100 | > 100 | > 100 | > 100 | > 100
6 | Cc1ccnc(NC(=S)Nc2cccc(Cl)c2)c1 | > 100 | > 100 |  | > 100 | > 100 | > 100 | > 100 | > 100 | > 100 | > 100
7 | CC(=O)c1ccc(N2CCN(C3=CC(=O)c4c(O)ccc(O)c4C3=O)CC2)cc1 | > 100 | > 100 | > 100 | > 100 | > 100 | > 100 | > 100 | > 100 | 61.7 | 50.3
8 | Cc1cc(S(=O)(=O)Nc2nc3ccccc3n2-c2ccccc2)c(S)cc1Cl | > 100 | > 100 |  | > 100 | > 100 | > 100 | > 100 | > 100 | > 100 | > 100
